Here are results for seven compounds from ChEMBL document CHEMBL1130870, “C6 modification of the pyridinone core of thrombin inhibitor L-374,087 as a means of enhancing its oral absorption” (Bioorg Med Chem Lett, 1998).

Molecules are shown by their SMILES.

For data set [1], the target named is Prothrombin (Homo sapiens, UniProt P00734). Nature of the data set: Compound was evaluated to inhibit the thrombin enzyme.
Data set [2] has as its target Serine protease 1 (Homo sapiens, UniProt P07477). Nature of the data set: Compound was evaluated to inhibit the trypsin enzyme.
For data set [3], the species on record is Rattus norvegicus. The data set is described as follows: Compound was evaluated for its anticoagulant and antithrombotic activity by measuring the clotting parameter in rat plasma. The data set is classed as functional.
Data set [4] in a line: Partition coefficient (logP). The format is physicochemical. The settings on record: octanol/water.
A short description of data set [5]: (§1) Compound was evaluated for half-life period in dogs at a dose of 5 mpk perorally. The format is ADME, organism-based, Canis lupus familiaris. The note with it: dog, in vivo, po, 5 mg/kg.
The species entered for data set [6] is Homo sapiens. The data set is described as follows: Compound was evaluated for its anticoagulant and antithrombotic activity by measuring the %protein binding in human plasma. The format is functional, cell-free.
Data set [7] can be described thus: Compound was evaluated for area under curve (total concentration) in dogs at a dose of 5 mpk perorally. The format is ADME, organism-based, Canis lupus familiaris. The note with it: dog, in vivo, po, 5 mg/kg.
The species entered for data set [8] is Rattus norvegicus. The data set is described as follows: Compound was evaluated for its anticoagulant and antithrombotic activity by measuring the final plasma concentration in rat plasma. The format is functional, organism-based.
The nature of data set [9]: Compound was evaluated for area under curve (total concentration) in dogs at a dose of 1 mpk perorally. The data set is classed as ADME, organism-based, Canis lupus familiaris. The settings on record: dog, in vivo, po, 1 mg/kg.
A short description of data set [10]: Bioavailability as Vdss in dogs at 1 mg/kg intravenous dose. The data set is classed as ADME, organism-based, Canis lupus familiaris. The settings on record: dog, in vivo, read-out: Vdss.
Data set [11] can be described thus: Compound was evaluated for its anticoagulant and antithrombotic activity by measuring the clotting parameter in human plasma. The data set is classed as functional.
The species entered for data set [12] is Rattus norvegicus. The data set is described as follows: Compound was evaluated for its anticoagulant and antithrombotic activity by measuring the %protein binding in rat plasma. The format is functional, organism-based.
A short description of data set [13]: Compound was evaluated for Clearance in dogs at a dose of 1 mpk intravenously. The data set is classed as ADME, organism-based, Canis lupus familiaris. The settings on record: dog, in vivo, iv, 1 mg/kg; read-out: CI.
A short description of data set [14]: Bioavailability as Cmax in dogs at 5 mg/kg oral dose. The format is ADME, organism-based, Canis lupus familiaris. On the set-up: dose 5 mg/kg, route oral. The settings on record: dog, in vivo.
Data set [15] is filed under the species Canis familiaris. Described as §1. The format is ADME, organism-based, Canis lupus familiaris. The note with it: dog, in vivo, po, 5 mg/kg.

Serine protease 1, sequence (P07477 whole entry): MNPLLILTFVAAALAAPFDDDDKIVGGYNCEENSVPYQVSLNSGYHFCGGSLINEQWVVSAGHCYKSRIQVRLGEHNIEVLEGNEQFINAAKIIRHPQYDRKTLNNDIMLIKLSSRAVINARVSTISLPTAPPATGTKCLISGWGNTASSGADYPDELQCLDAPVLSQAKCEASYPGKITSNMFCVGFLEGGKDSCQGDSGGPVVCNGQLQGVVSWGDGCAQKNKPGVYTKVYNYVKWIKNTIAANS

What is called Ki is the dissociation constant of the complex between target and ligand, obtained from inhibition or displacement. The low end stands for a stronger hold on the target, the high end for a looser hold on the target. Regarding `Cc1nc(N)ccc1CNC(=O)Cn1c(C2CC2)ccc(NS(=O)(=O)Cc2ccccc2)c1=O`, the Ki amounted to 16 nM in data set [1] and 1700 nM in data set [2].

Usually logP stands for the decadic logarithm of the partition coefficient of the neutral form, usually between octanol and water. The low end stands for a more hydrophilic compound, the high end for a more lipophilic compound. The term half-life denotes the time in which the quantity being followed falls by half. High values mean slow decline, low ones rapid decline. In general, AUC refers to concentration integrated over time. The low end stands for low exposure, the high end for high exposure. The term Cmax denotes the highest concentration seen after dosing. `CCCc1ccc(NS(=O)(=O)Cc2ccccc2)c(=O)n1CC(=O)NCc1ccc(N)nc1C`: the “2x APTT” value in [3] is 0.4 µM; in data set [11] it was 0.32 µM. For the same compound, in [4], the logP was determined as 1.52. For the same compound, in data set [5], the half-life stood at 189 min. Further, the PPB in data set [6] is 88%; in [12], 75%. The AUC in data set [7] was 40.6 µM·h; in data set [9], 5.93 µM·h. In addition, the values for the Ki in data set [1] and in data set [2] were 0.85 nM and 1400 nM, respectively. Further, in data set [8], the Plasma concentration was found to be 0.389 µM. For the same compound, the Vd in [10] stood at 0.54 L/kg. In addition, the clearance in data set [13] was 5.82 mL/min/kg. The compound also returned a Cmax in data set [14] of 9.46 µM.

For the compound `Cc1nc(N)ccc1CNC(=O)Cn1c(C)ccc(NS(=O)(=O)Cc2ccccc2)c1=O` [L-374087], the “2x APTT” value in data set [3] is 0.25 µM; in data set [11] it was 0.22 µM. This compound showed a logP in data set [4] of 0.69. The same compound showed a T1/2 in [15] of 2.52 h. In addition, the PPB in [6] turned out to be 78%; in [12] it was 47%. The exposure (AUC) in data set [7] came to 18.8 µM·h; in data set [9], 9.92 µM·h. Moreover, the Plasma concentration in data set [8] was 0.586 µM. In addition, in data set [10], the Vd was 0.46 L/kg. Besides, the clearance in data set [13] came out at 3.8 mL/min/kg. Also, the peak level in data set [14] (Cmax) was 5.31 µM.

Compound `Cc1nc(N)ccc1CNC(=O)Cn1c(C2CC2)ccc(NS(=O)(=O)Cc2ccc(Cl)cc2)c1=O` displayed a logP in [4] of 1.98. Moreover, the PPB in [6] stood at 94%. Besides, the Ki in data set [1] was 4 nM; in data set [2] it was 1900 nM. The compound also yielded a Plasma concentration in data set [8] of 0.347 µM. The “2x APTT” value in data set [11] was determined as 1.43 µM.

Take `Cc1nc(N)ccc1CNC(=O)Cn1c(C)ccc(NS(=O)(=O)Cc2ccc(Cl)cc2)c1=O`: the Ki in data set [1] turned out to be 0.12 nM; in data set [2] it was 2600 nM.

For `Cc1nc(N)ccc1CNC(=O)Cn1c(C(F)(F)F)ccc(NS(=O)(=O)Cc2ccc(Cl)cc2)c1=O`, the Ki amounted to 2.6 nM in [1] and 3400 nM in [2].

As for `Cc1nc(N)ccc1CNC(=O)Cn1c(C(F)(F)F)ccc(NS(=O)(=O)Cc2ccccc2)c1=O`, the Ki in data set [1] is 12 nM; in data set [2], 2500 nM.
